# How the values were obtained:
# [1] = test system: B16-F0 cells; test: Tumour development / liver metastases, organ weight and histology on day 21; assay type: in vivo, BALB/c male mice
# Method: (§1) A number of studies have been completed where mice were treated on day 7 (post-tumour induction) with different cisplatin formulations by inhalation and the effect on subsequent tumour burdens, based on organ weight or direct assessment of the number and size distribution of tumours, was assessed 14 days later. The lungs, liver and spleen were cut into longitudinal slices and the kidney bisected and placed in a tissue cassette. After routine processing in paraffin wax, […] sections were mounted on a glass slide, dewaxed in 100% xylene and serially rehydrated in graded ethanol to water. Sections were then stained with haematoxylin and eosin and examined by light microscopy. For each organ the number and size of tiny (unmeasurable), small, medium and large tumours was determined counted in one H&E section. The size of the largest tumour deposit was also noted. The dimensions used to characterise tumours was small (0.5 to 1.4 mm), medium (1.5 to 2.9 mm), or large (>3 mm largest dimension). The percentage of tiny tumours was calculated using the total number of tumours present in the section.
# [2] = test system: B16 F0 cells; test: In vivo lung cancer efficacy study, organ weights; design: species or system BALB/c mice; details: sacrificed day 14; for Lung weight: Table 9
# Method: BALB/c mice (n=8/treatment) were injected intravenously on day 0 with 1-5×10^5 B16 F0 cells which form metastatic lung and liver tumours in mice (Nakurmura et al., 2002). On day 7 mice were treated either by intravenous injection of 0.2 ml of the appropriate drug formulation or PBS pH 7.4/saline (controls) or by inhalation with the appropriate drug formulation or saline using the Buxco® nebulisation system. 0.5 ml of the appropriate formulation or saline was added to the nebuliser which was attached to a Volumatic™ Spacer (Allen and Hanbury, Uxbridge, Middlesex). After 1.5 mins of nebulisation the nebuliser was switched off and the mice were exposed to the resulting aerosol for a further 5 minutes. Mice were sacrificed on day 14, body weight and the weight of the spleen, liver, lungs and kidney assessed. Lung weight was taken as an indirect measure of tumour burden. In some cases mice were dosed on days 4, 7, 9 and 11. Tumours were easily visible as black areas on the surface of the lungs and liver.
# [3] = test system: B16 F0 cells; test: In vivo lung cancer efficacy study, organ weights; details: Table 8; BALB/c female mice; inhalation day 7; Free drug (1 mg/ml), Processed cisplatin-NIV (0.5 mg/ml); sacrificed day 23
# [4] = Cisplatin levels in samples from mice treated by inhalation or intravenous injection (HPLC); assay type: in vivo, BALB/c mice; details: for Mean cisplatin concentration, Kidney / Mean cisplatin concentration, Liver / Mean cisplatin concentration, Lung lavages / Mean cisplatin concentration, Lungs / Mean cisplatin concentration, Serum / Mean cisplatin concentration, Spleen: 5 minutes after dosing
# Method: Mice were treated with the appropriate drug formulation either by intravenous injection of 0.2 ml of the appropriate drug formulation or PBS pH 7.4/saline (controls) or by inhalation with the appropriate drug formulation or saline (controls) using the Buxco® nebulisation system. 0.5 ml of the appropriate formulation or saline was added to the nebuliser which was attached to a Volumatic™ Spacer (Allen and Hanbury, Uxbridge, Middlesex). After 1.5 mins of nebulisation, the nebuliser was switched off, and the mice were exposed to the resulting aerosol for a further 5 minutes. […] Blood was taken by cardiac puncture and allowed to clot by storing for up to 12 hours at 4° C. Serum was separated from clotted blood sample by centrifuging at 13,000 rpm at 4° C., and transferred to a clean eppendorf tube. The lungs of the mouse were inflated by introducing two samples of 0.8 ml PBS pH 7.4 via the trachea and the resulting lung lavages were transferred to a clean eppendorf tube. Various organs were removed from the mouse and stored in 1.5 ml microfuge tubes. All the samples were stored at −20° C. until cisplatin levels within the samples could be determined using an HPLC assay.
# [5] = after intravenous administration; cited from earlier work
# [6] = test system: Leishmania donovani; test: In vivo efficacy study using Leishmania donovani; design: species or system BALB/c mice; details: iv 0.2 ml (0.5 mg/ml cisplatin) on day 7 post-infection; burdens seven days later
# Method: BALB/c mice were infected by intravenous injection (tail vein, no anaesthetic) with 1-2×10^7 L. donovani amastigotes (Carter et al., 1988). The day of parasite administration to the mice was designated day 0 of the experiment. On day 7 post-infection mice were treated by intravenous injection with 0.2 ml of the appropriate formulation by intravenous injection, without anaesthetic (n=4/treatment). On day 14 impression smears of the spleen and liver, and a smear of bone marrow, were made on to an individual glass microscope slide for each mouse at sacrifice. The slides were fixed in methanol for 30 secs, stained in 10% aqueous Giemsa stain (BDH, VWR International Ltd., Poole, UK) for 20 minutes, and then allowed to air dry. The number of parasites present/1000 host nuclei for the spleen, liver and bone marrow for each sample was determined at ×1000 magnification. The LDU was calculated by multiplying the number of parasites present/1000 host nuclei by the organ weight (gms) for the spleen and liver.
# [7] = room temperature; cited from earlier work
# [8] = test system: B16-F0 cells; test: Tumour development / liver metastases, organ weight and histology on day 21; assay type: in vivo, C57BL/6 male mice; details: Table 12 C57BL/6 male
# Method: as §1
# [9] = Table 10, inhalation day 7, cisplatin solution 1 mg/ml, cisplatin-NIV 0.5 mg/ml
# [10] = Table 11, inhalation day 7, cisplatin solution 1 mg/ml, cisplatin-NIV 0.1 mg/ml
# [11] = Table 11, solution 1 mg/ml, NIV 0.1 mg/ml
# [12] = Table 11, solution 1 mg/ml, NIV 0.1 mg/ml, large >3 mm
# [13] = Table 11, solution 1 mg/ml, NIV 0.1 mg/ml, medium 1.5 to 2.9 mm
# [14] = Table 11, solution 1 mg/ml, NIV 0.1 mg/ml, small 0.5 to 1.4 mm
# [15] = Table 12 BALB/c male, inhalation day 7, cisplatin solution 1 mg/ml, cisplatin-NIV 0.5 mg/ml
# [16] = Table 12 BALB/c male, solution 1 mg/ml, NIV 0.5 mg/ml
# [17] = Table 5, 0.5 mg/ml inhalation 6.5 mins on day 7
# [18] = Table 5, 4.44 mg/kg iv (0.2 ml of 0.5 mg/ml) on day 7
# [19] = Table 6 Expt 1, inhalation on days 4, 7, 9 and 11, cisplatin solution 0.5 mg/ml, processed cisplatin-NIV as prepared
# [20] = Table 6 Expt 2, inhalation day 7 only, 0.1 mg/ml
# [21] = Table 3, inhalation 6.5 minutes, 0.5 ml of 0.5 mg/ml
# [22] = Table 4, inhalation 6.5 minutes, 0.5 ml of 0.5 mg/ml
# [23] = inhalation day 7, cisplatin solution 1 mg/ml, cisplatin-NIV 0.5 mg/ml
# [24] = solution 1 mg/ml, NIV 0.5 mg/ml
structure (smiles),measurement,setting,value
"[NH2][Pt]([NH2])([Cl])[Cl] [Cisplatin solution, cisplatin]","% animals with visible metastases, Liver",[1]; [9],(100%)
same,"% animals with visible metastases, Lung",[1]; [9],(100%)
same,"Mean weight, Liver",[1]; [9],1.53 ± 0.03 g
same,"Mean weight, Lung",[1]; [9],0.20 ± 0.01 g
same,Liver Weight,[1]; [10],1.65 ± 0.10
same,"Lungs Histology, percentage of tiny tumours",[1]; [10],Tiny 60%
same,Lungs Weight,[1]; [10],0.22 ± 0.01
same,"Liver Histology, D largest tumour mass, breadth",[1]; [11],1.6 ± 0.43
same,"Liver Histology, D largest tumour mass, length",[1]; [11],D 2.38
same,"Lungs Histology, D largest tumour mass, breadth",[1]; [11],1.19 ± 0.23
same,"Lungs Histology, D largest tumour mass, length",[1]; [11],D 1.4 ± 0.37 ×
same,"Liver Histology, number of large tumours (L)",[1]; [12],L 3.8 ± 2.15
same,"Lungs Histology, number of large tumours (L)",[1]; [12],L 0.40 ± 0.24
same,"Liver Histology, number of medium tumours (M)",[1]; [13],M 2.2 ± 1.56
same,"Lungs Histology, number of medium tumours (M)",[1]; [13],M 1.0 ± 0.6
same,"Liver Histology, number of small tumours (S)",[1]; [14],S 0.4 ± 0.24
same,"Lungs Histology, number of small tumours (S)",[1]; [14],S 2.5 ± 0.43
same,Liver Weight,[1]; [15],1.74 ± 0.05
same,Lungs Weight,[1]; [15],0.22 ± 0.02
same,"Liver Tumours, D largest tumour mass, breadth",[1]; [16],2.3 ± 0.70
same,"Liver Tumours, D largest tumour mass, length",[1]; [16],D 2.63 ± 0.71 ×
same,"Liver Tumours, number large (L)",[1]; [16],L 2.5 ± 1.50
same,"Liver Tumours, number medium (M)",[1]; [16],M 2.0 ± 1.41
same,"Liver Tumours, number small (S)",[1]; [16],S 3.5 ± 1.32
same,"Liver Tumours, percentage of tiny tumours",[1]; [16],Tiny 0%
same,"Lungs Tumours, D largest tumour mass, breadth",[1]; [16],1.08 ± 0.15
same,"Lungs Tumours, D largest tumour mass, length",[1]; [16],D 1.45 ± 0.13 ×
same,"Lungs Tumours, number large (L)",[1]; [16],L 0
same,"Lungs Tumours, number medium (M)",[1]; [16],M 0.5 ± 0.29
same,"Lungs Tumours, number small (S)",[1]; [16],S 7.75 ± 1.11
same,"Lungs Tumours, percentage of tiny tumours",[1]; [16],Tiny 60%
same,"Mean organ weight, Liver",[2]; [17],1.47 ± 0.05 g
same,"Mean organ weight, Lungs",[2]; [17],0.22 ± 0.01 g
same,"Mean organ weight, Liver",[2]; [18],1.44 ± 0.16 g
same,"Mean organ weight, Lungs",[2]; [18],0.42 ± 0.03 g
same,"Mean organ weight, Liver",[2]; [19],1.19 ± 0.07 g
same,"Mean organ weight, Lungs",[2]; [19],0.21 ± 0.01 g
same,"Mean organ weight, Liver",[2]; [20],1.30 ± 0.03 g
same,"Mean organ weight, Lungs",[2]; [20],0.21 ± 0.01 g
same,Lung weight,"[2]; Female mice, inhalation day 7, 1 mg/ml",0.19 ± 0.01
same,Lung weight,"[2]; Male mice, inhalation day 7, 0.5 mg/ml",0.23 ± 0.02
same,Lung weight,[3],0.33 ± 0.02
same,Detection of cisplatin by conventional HPLC analysis,[4]; 15 minutes after dosing,not possible to detect
same,"Mean cisplatin concentration, Kidney",[4]; [21],6.81 ± 2.53 μg/ml/g tissue
same,"Mean cisplatin concentration, Liver",[4]; [21],0.037 ± 0.04 μg/ml/g tissue
same,"Mean cisplatin concentration, Lung lavages",[4]; [21],0.004 ± 0.002 µg/mL
same,"Mean cisplatin concentration, Lungs",[4]; [21],0 ± 0 μg/ml/g tissue
same,"Mean cisplatin concentration, Serum",[4]; [21],0.268 ± 0.1 µg/mL
same,"Mean cisplatin concentration, Spleen",[4]; [21],0.018 ± 0.01 μg/ml/g tissue
same,"Mean cisplatin concentration, Kidney","[4]; Table 3, iv 0.2 ml, 0.5 mg/ml",0.951 ± 0.35 μg/ml/g tissue
same,"Mean cisplatin concentration, Liver","[4]; Table 3, iv 0.2 ml, 0.5 mg/ml",0.19 ± 0.13 μg/ml/g tissue
same,"Mean cisplatin concentration, Lung lavages","[4]; Table 3, iv 0.2 ml, 0.5 mg/ml",0.13 ± 0.07 µg/mL
same,"Mean cisplatin concentration, Lungs","[4]; Table 3, iv 0.2 ml, 0.5 mg/ml",0 ± 0 μg/ml/g tissue
same,"Mean cisplatin concentration, Serum","[4]; Table 3, iv 0.2 ml, 0.5 mg/ml",0.296 ± 0.13 µg/mL
same,"Mean cisplatin concentration, Spleen","[4]; Table 3, iv 0.2 ml, 0.5 mg/ml",0.065 ± 0.02 μg/ml/g tissue
same,"Mean cisplatin concentration, Kidney",[4]; [22],0.55 ± 0.48 μg/ml/g tissue
same,"Mean cisplatin concentration, Liver",[4]; [22],0.032 ± 0.02 μg/ml/g tissue
same,"Mean cisplatin concentration, Lung lavages",[4]; [22],0.095 ± 0.06 µg/mL
same,"Mean cisplatin concentration, Lungs",[4]; [22],0.032 ± 0.15 μg/ml/g tissue
same,"Mean cisplatin concentration, Serum",[4]; [22],0 ± 0 µg/mL
same,"Mean cisplatin concentration, Spleen",[4]; [22],0.346 ± 0.19 μg/ml/g tissue
same,"Mean cisplatin concentration, Kidney","[4]; Table 4, iv 0.2 ml, 0.5 mg/ml",0.55 ± 0.48 μg/ml/g tissue
same,"Mean cisplatin concentration, Liver","[4]; Table 4, iv 0.2 ml, 0.5 mg/ml",0.032 ± 0.02 μg/ml/g tissue
same,"Mean cisplatin concentration, Lung lavages","[4]; Table 4, iv 0.2 ml, 0.5 mg/ml",0.095 ± 0.06 µg/mL
same,"Mean cisplatin concentration, Lungs","[4]; Table 4, iv 0.2 ml, 0.5 mg/ml",0.032 ± 0.015 μg/ml/g tissue
same,"Mean cisplatin concentration, Serum","[4]; Table 4, iv 0.2 ml, 0.5 mg/ml",0.207 ± 0.02 µg/mL
same,"Mean cisplatin concentration, Spleen","[4]; Table 4, iv 0.2 ml, 0.5 mg/ml",0.346 ± 0.10 μg/ml/g tissue
same,Share of the dose that reaches the lungs,[5],0.1%
same,Mean number of parasites ± SE (L. donovani liver parasite burdens),[6],2142 ± 249
same,Maximum aqueous solubility,[7],approximately 1 mg/ml
same,Liver Weight,[8]; [23],1.76 ± 0.16
same,Lungs Weight,[8]; [23],0.25 ± 0.03
same,"Liver Tumours, D largest tumour mass, breadth",[8]; [24],4.44 ± 0.56
same,"Liver Tumours, D largest tumour mass, length",[8]; [24],D 5.64 ± 0.88 ×
same,"Liver Tumours, number large (L)",[8]; [24],L 6.4 ± 2.95
same,"Liver Tumours, number medium (M)",[8]; [24],M 2.8 ± 1.01
same,"Liver Tumours, number small (S)",[8]; [24],S 0.20 ± 0.20
same,"Lungs Tumours, D largest tumour mass, breadth",[8]; [24],0.7 ± 0.20
same,"Lungs Tumours, D largest tumour mass, length",[8]; [24],D 1.35 ± 0.35 ×
same,"Lungs Tumours, number large (L)",[8]; [24],L 0
same,"Lungs Tumours, number medium (M)",[8]; [24],M 1.0 ± 0.6
same,"Lungs Tumours, number small (S)",[8]; [24],S 1.2 ± 0.73
same,"Lungs Tumours, percentage of tiny tumours",[8]; [24],Tiny 0%
